System: GNS166 cells
Test: Label-free proteomics differential expression
Format: cell-based, human
Protocol: Proteomic studies were performed by the Proteomics Facility of the CIC bioGUNE by label-free relative quantification on nLC MS/MS. […] In both approaches, the top 20 enriched terms were plotted and the pathways were clustered using divisive hierarchical clustering based on pairwise Jaccard distances.

C#CCN(Cc1cc2cc(OCCCN3CCCCC3)ccc2n1S(=O)(=O)c1ccccc1)C(=O)CCCCCCC(=O)NO [DDI]
LogFC STAU1_HUMAN (protein O95793): -0.5064 | LogFC BPNT1_HUMAN (protein O95861 GN=BPNT1): 0.8709 | Direction MBD3_HUMAN (protein O95983): Down | LogFC MBD3_HUMAN (protein O95983): -1.39 | Direction ZBED1_HUMAN (protein O96006): Down | LogFC ZBED1_HUMAN (protein O96006): -1.855 | Direction NSD2_HUMAN (protein O96028): Down | LogFC NSD2_HUMAN (protein O96028): -2.1573 | LogFC TPC2B_HUMAN (protein P0DI82 GN=TRAPPC2B): 1.676 | LogFC HS71A_HUMAN (protein P0DMV8 GN=HSPA1A): 0.6446 | LogFC AL1A1_HUMAN (protein P00352 GN=ALDH1A1): 1.798 | Direction EGFR_HUMAN (protein P00533): Down | LogFC EGFR_HUMAN (protein P00533): -0.977 | LogFC TPA_HUMAN (protein P00750 GN=PLAT): 1.254 | LogFC CAH2_HUMAN (protein P00918 GN=CA2): 2.905 | LogFC LDLR_HUMAN (protein P01130 GN=LDLR): -1.436 | LogFC TFR1_HUMAN (protein P02786 GN=TFRC): 0.6801 | LogFC TRFE_HUMAN (protein P02787 GN=TF): 1.471 | LogFC FRIL_HUMAN (protein P02792 GN=FTL): 2.1013 | LogFC GLCM_HUMAN (protein P04062 GN=GBA): 1.34 | Direction ANXA1_HUMAN (protein P04083): Down | LogFC ANXA1_HUMAN (protein P04083): -0.1864 | LogFC OAT_HUMAN (protein P04181 GN=OAT): 0.8669 | LogFC TBB4A_HUMAN (protein P04350 GN=TUBB4A): 2.022 | LogFC AT1B1_HUMAN (protein P05026 GN=ATP1B1): 0.7382 | LogFC CHLE_HUMAN (protein P06276 GN=BCHE): 1.793 | LogFC GELS_HUMAN (protein P06396 GN=GSN): 1.338 | Direction CDK1_HUMAN (protein P06493): Down | LogFC CDK1_HUMAN (protein P06493): -2.828 | LogFC H10_HUMAN (protein P07305 GN=H1-0): 2.4177 | Direction CAN1_HUMAN (protein P07384): Down | LogFC CAN1_HUMAN (protein P07384): -0.5477 | LogFC HEXB_HUMAN (protein P07686 GN=HEXB): 2.1461 | LogFC TNR16_HUMAN (protein P08138 GN=NGFR): 4.357 | LogFC ASNS_HUMAN (protein P08243 GN=ASNS): 0.9749 | LogFC ANXA5_HUMAN (protein P08758 GN=ANXA5): 0.5383 | Direction SRP19_HUMAN (protein P09132): Down | LogFC SRP19_HUMAN (protein P09132): -0.7201 | Direction HMGB1_HUMAN (protein P09429): Down | LogFC HMGB1_HUMAN (protein P09429): -0.3836 | LogFC SPRC_HUMAN (protein P09486 GN=SPARC): 0.9159 | Direction DPOLA_HUMAN (protein P09884): Down | LogFC DPOLA_HUMAN (protein P09884): -0.7754 | LogFC TZAP_HUMAN (protein P10074 GN=ZBTB48): 0.6846 | LogFC LYAG_HUMAN (protein P10253 GN=GAA): 1.719 | LogFC RRAS_HUMAN (protein P10301 GN=RRAS): 1.8337 | Direction COT1_HUMAN (protein P10589): Down | LogFC COT1_HUMAN (protein P10589): -2.0511 | LogFC PPGB_HUMAN (protein P10619 GN=CTSA): 1.238 | LogFC LAMC1_HUMAN (protein P11047 GN=LAMC1): 1.296 | LogFC MTAP2_HUMAN (protein P11137 GN=MAP2): 1.918 | Direction GTR1_HUMAN (protein P11166): Down | LogFC GTR1_HUMAN (protein P11166): -1.063 | LogFC GTR3_HUMAN (protein P11169 GN=SLC2A3): 0.7017 | Direction PYGM_HUMAN (protein P11217): Down | LogFC PYGM_HUMAN (protein P11217): -1.18 | LogFC LAMP1_HUMAN (protein P11279 GN=LAMP1): 0.9125 | Direction TOP2A_HUMAN (protein P11388): Down | LogFC TOP2A_HUMAN (protein P11388): -2.075 | LogFC G6PD_HUMAN (protein P11413 GN=G6PD): 0.8016 | LogFC PRPS2_HUMAN (protein P11908 GN=PRPS2): 1.0339 | Direction COBA1_HUMAN (protein P12107): Down | LogFC COBA1_HUMAN (protein P12107): -0.989 | Direction CO6A1_HUMAN (protein P12109): Down | LogFC CO6A1_HUMAN (protein P12109): -2.398 | LogFC LAMP2_HUMAN (protein P13473 GN=LAMP2): 0.7741 | LogFC MTDC_HUMAN (protein P13995 GN=MTHFD2): 1.415 | LogFC CBPM_HUMAN (protein P14384 GN=CPM): 1.371 | Direction CCNB1_HUMAN (protein P14635): Down | LogFC CCNB1_HUMAN (protein P14635): -2.713 | LogFC ARSA_HUMAN (protein P15289 GN=ARSA): 0.8733 | LogFC NQO2_HUMAN (protein P16083 GN=NQO2): 1.439 | Direction ITB4_HUMAN (protein P16144): Down | LogFC ITB4_HUMAN (protein P16144): -1.613 | LogFC CBR1_HUMAN (protein P16152 GN=CBR1): 1.143 | Direction ANK1_HUMAN (protein P16157): Down | LogFC ANK1_HUMAN (protein P16157): -1.996 | Direction GCFC2_HUMAN (protein P16383): Down | LogFC GCFC2_HUMAN (protein P16383): -2.09 | LogFC SYN1_HUMAN (protein P17600 GN=SYN1): 2.1979 | Direction CAN2_HUMAN (protein P17655): Down | LogFC CAN2_HUMAN (protein P17655): -0.5036 | LogFC DDX5_HUMAN (protein P17844 GN=DDX5): -0.6799 | Direction PFKAL_HUMAN (protein P17858): Down | LogFC PFKAL_HUMAN (protein P17858): -0.5357 | Direction ITB5_HUMAN (protein P18084): Down | LogFC ITB5_HUMAN (protein P18084): -1.897 | Direction SDC1_HUMAN (protein P18827): Down | LogFC SDC1_HUMAN (protein P18827): -2.102 | Direction PLCG1_HUMAN (protein P19174): Down | LogFC PLCG1_HUMAN (protein P19174): -1.036 | LogFC RXRA_HUMAN (protein P19793 GN=RXRA): -2.086 | Direction MX1_HUMAN (protein P20591): Down | LogFC MX1_HUMAN (protein P20591): -3.492 | LogFC FILA_HUMAN (protein P20930 GN=FLG): 2.48 | Direction RASA1_HUMAN (protein P20936): Down | LogFC RASA1_HUMAN (protein P20936): -0.7321 | LogFC VATB2_HUMAN (protein P21281 GN=ATP6V1B2): 1.09 | LogFC VATC1_HUMAN (protein P21283 GN=ATP6V1C1): 0.7781 | LogFC AOFA_HUMAN (protein P21397 GN=MAOA): 0.8861 | LogFC ACOC_HUMAN (protein P21399 GN=ACO1): 0.9989 | LogFC TGM2_HUMAN (protein P21980 GN=TGM2): 2.278 | Direction PTPRE_HUMAN (protein P23469): Down | LogFC PTPRE_HUMAN (protein P23469): -2.558 | Direction RIR1_HUMAN (protein P23921): Down | LogFC RIR1_HUMAN (protein P23921): -1.151 | Direction MCM3_HUMAN (protein P25205): Down | LogFC MCM3_HUMAN (protein P25205): -0.4173 | LogFC MOES_HUMAN (protein P26038 GN=MSN): -0.6643 | Direction DNMT1_HUMAN (protein P26358): Down | LogFC DNMT1_HUMAN (protein P26358): -0.8972 | Direction HMGB2_HUMAN (protein P26583): Down | LogFC HMGB2_HUMAN (protein P26583): -0.4752 | Direction SYVC_HUMAN (protein P26640): Down | LogFC SYVC_HUMAN (protein P26640): -0.2125
